Data as given in ChEMBL document CHEMBL4680320, “Exploiting the antiproliferative potential of spiropyrazoline oxindoles in a human ovarian cancer cell line” (Bioorg Med Chem, 2021).
Activity calls are given as the source filed them. No cut-off for these calls is given here.

Experiments:
Calf thymus DNA [1] = assay: Binding affinity to calf thymus DNA at 100 uM by circular dichroism spectroscopy; conditions: Bos taurus
Cancer cell lines = assay: Induction of apoptosis in human A2780 cells assessed as DNA damage after 48 hrs by fluorescence microscopic analysis; format: functional, cell-based
MDA-MB-453 = assay: Antiproliferative activity against human MDA-MB 453 cells assessed as reduction in cell viability incubated for 48 hrs by MTS assay; format: functional, cell-based; conditions: MDA-MB-453, 48 h
A2780 [2] = assay: Effect on cell cycle distribution in human A2780 cells at 8.5 uM measured after 4 to 24 hrs by flow cytometry; format: functional, cell-based; conditions: time 4-24 hrs
Fibroblast = assay: Cytotoxicity against human fibroblasts cells assessed as cell viability incubated for 48 hrs by MTS assay; format: cell-based
A2780 [3] = assay: Induction of apoptosis in human A2780 cells assessed as PARP level at 8.5 uM after 48 hrs by Western blot analysis; format: functional, cell-based
A2780 [4] = assay: Induction of autophagy in human A2780 cells assessed as autophagosome accumulation at 8.5 uM after 48 hrs by Hoechst staining based fluorescence microscopic analysis relative to control; format: functional, cell-based
DNA [5] = assay: Induction of DNA damage of Escherichia coli pUC18 plasmid DNA at 8.5 uM after 24 hrs by agarose gel electrophoresis method; format: nucleic-acid assay
A2780 [6] = assay: Induction of necrosis in human A2780 cells at 8.5 uM measured after 48 hrs by Annexin-V/propidium iodide staining-based flow cytometric analysis; format: functional, cell-based
A2780 [7] = assay: Induction of mitochondrial membrane potential loss in human A2780 cells at 8.5 uM after 48 hrs by JC-1 staining based flow cytometry; format: functional, cell-based
DNA [8] = assay: Induction of DNA damage in human A2780 cells assessed as DNA fragmentation at 8.5 uM after 48 hrs by agarose gel electrophoresis; format: cell-based
A2780 [9] = assay: Induction of apoptosis in human A2780 cells assessed as decreased […] expression at 8.5 uM after 48 hrs by Western blot analysis; format: functional, cell-based
A2780 [10] = assay: Induction of apoptosis in human A2780 cells assessed as increased BAX expression at 8.5 uM after 48 hrs by Western blot analysis; format: functional, cell-based
A2780 [11] = assay: Antiproliferative activity against human A2780 cells assessed as cell viability incubated for 48 hrs by MTS assay; format: functional, cell-based; conditions: A2780, 48 h
A2780 [12] = assay: Induction of intracellular reactive oxygen species production in human A2780 cells at 8.5 uM measured after 48 hrs by DCFH-DA probe based fluorescence microscopic analysis; format: functional, cell-based
A2780 [13] = assay: Induction of apoptosis in human A2780 cells assessed as late apoptotic cells at 8.5 uM measured after 48 hrs by Annexin-V/propidium iodide staining-based flow cytometric analysis (reference value: 6%); format: functional
Calf thymus DNA [14] = assay: Binding affinity to calf thymus DNA after 24 hrs by UV-vis spectroscopy; conditions: Bos taurus
A2780 [15] = assay: Induction of apoptosis in human A2780 cells assessed as apoptotic cells at 8.5 uM measured after 48 hrs by Hoechst staining based fluorescence microscopic analysis relative to control; format: functional

Compound	IC50 (MDA-MB-453) [µM]	IC50 (Fibroblast) [µM]	IC50 (A2780 [11]) [µM]	also measured
O=C1Nc2ccc(Br)cc2[C@]12[C@@H](c1ccccc1)C(c1ccccc1)=NN2c1ccccc1	11.3	55.2	8.5	Activity (Calf thymus DNA [1]): Active; Activity (Cancer cell lines): Active; Activity (A2780 [2]): inactive; Activity (A2780 [3]): Active; Activity (A2780 [4]): Active; Activity (DNA [5]): inactive; Activity (A2780 [6]): inactive; Activity (A2780 [7]): Active; Activity (DNA [8]): inactive; Activity (A2780 [9]): Active; Activity (A2780 [10]): Active; Activity (A2780 [12]): inactive; Activity (A2780 [13]): 13%; Kb (Calf thymus DNA [14]): 7.09 10^6/M; Activity (A2780 [15]): 31%
CC(C)(C)C1=NN(c2ccc(Cl)cc2)[C@]2(C(=O)Nc3cc(Cl)c(F)cc32)[C@H]1c1cccc(Cl)c1F	15	12.9	9.9	
CC(C)(C)C1=NN(c2ccccc2)[C@]2(C(=O)Nc3cc(Cl)c(F)cc32)[C@H]1c1cccc(Cl)c1F	16.3	17.3	11.7	
CC(C)(C)C1=NN(c2ccccc2)[C@]2(C(=O)Nc3ccc(Br)cc32)[C@H]1c1ccccc1	14.6	15.7	12.1	
COc1cccc2c1C(=O)c1c(O)c3c(c(O)c1C2=O)C[C@@](O)(C(=O)CO)C[C@@H]3O[C@H]1C[C@H](N)[C@H](O)[C@H](C)O1 [DOXORUBICIN]			0.6	
CC(C)(C)C1=NN(c2ccccc2)[C@]2(C(=O)Nc3cc(Cl)c(F)cc32)[C@H]1c1cccc(Cl)c1	14.7	14.9	11.4	
